Patent US10219516B2, “Molecules having pesticidal utility, and intermediates, compositions, and processes, related thereto” (priority 2015, dated 2019)

Tests used:
Type in all cases: in vivo
[1] = test system: Beet Armyworm (Spodoptera exigua, LAPHEG); assay: Bioassay on Beet Armyworm (BAW), 128-well diet tray assay; details: Species BAW (Beet Armyworm), read-out: BAW (Biological Results, rating)
How it was run: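 Diet tray, 8 wells/compound; 50 μg/cm^2 applied to diet surface (90:10 acetone-water), dried. 1–5 L2 larvae/well; 25° C., 14:10 L:D, 5–7 d. Read-out: % mortality, mean of 8 wells.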

[2] = test system: Yellow Fever Mosquito (Aedes aegypti, AEDSAE); assay: Bioassay on Yellow Fever Mosquito (YFM), 96-well plate larval assay; details: Species YFM (Yellow Fever Mosquito)
Procedure: Certain molecules disclosed in this document were tested against YFM using procedures described in the following paragraph. In the reporting of the results, the “GPA & YFM Rating Table” was used (See Table Section).
Master plates containing 400 μg of a molecule dissolved in 100 μL of dimethyl sulfoxide (DMSO) (equivalent to a 4000 ppm solution) are used. A master plate of assembled molecules contains 15 μL per well. To this plate, 135 μL of a 90:10 water/acetone mixture is added to each well. A robot is programmed to dispense 15 μL aspirations from the master plate into an empty 96-well shallow plate (“daughter” plate). There are 6 reps (“daughter” plates) created per master. The created “daughter” plates are then immediately infested with YFM larvae.
The day before plates are to be treated, mosquito eggs are placed in Millipore water containing liver powder to begin hatching (4 g. into 400 mL). After the “daughter” plates are created using the robot, they are infested with 220 μL of the liver powder/larval mosquito mixture (about 1 day-old larvae). After plates are infested with mosquito larvae, a non-evaporative lid is used to cover the plate to reduce drying. Plates are held at room temperature for 3 days prior to grading. After 3 days, each well is observed and scored based on mortality. The results are indicated in the table entitled “Table ABC: Biological Results” (See Table Section).

[3] = test system: Cabbage Looper (Trichoplusia ni, TRIPNI); assay: Bioassay on Cabbage Looper (CL), 128-well diet tray assay; details: Trichoplusia ni; Species CL (Cabbage Looper); read-out: CL (Biological Results, rating)
How it was run: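 Second-instar larvae, one to five per well, were placed on artificial diet surface-treated with 50 μg/cm^2 test molecule applied in 90:10 acetone-water and dried, eight wells per molecule. Trays were covered, vented and held at 25° C., 14:10 light-dark for five to seven days; percent mortality per well was averaged.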

| SMILES | pest or weed control at 50 µg/cm2 [1] [%] | YFM (Biological Results, rating) [2] | pest or weed control at 50 µg/cm2 [3] [%] |
| --- | --- | --- | --- |
| O=C(Nc1ccc(Cl)nc1)c1cc(NC(=O)[C@H]2[C@H](c3cc(Cl)cc(Cl)c3)C2(Cl)Cl)ccc1Cl (relative stereo) [F32, trans-2-Chloro-N-(6-chloropyridin-3-yl)-5-(2,2-dichloro-3-(3,5-dichlorophenyl)cyclopropane-1-carboxamido)benzamide] | 50 to 100 | A (80-100) | 50 to 100 |
| O=C(Nc1ccc(F)cc1)c1cc(NC(=O)[C@H]2[C@H](c3cccc(C(F)(F)F)c3)C2(Cl)Cl)ccc1Cl (relative stereo) [F56, trans-2-Chloro-5-(2,2-dichloro-3-(3-(trifluoromethyl)phenyl)cyclopropane-1-carboxamido)-N-(4-fluorophenyl)benzamide] | 50 to 100 | B (More than 0-Less than 80) | 50 to 100 |
| CN(C(=O)c1cc(NC(=O)[C@H]2[C@H](c3cccc(C(F)(F)F)c3)C2(Cl)Cl)ccc1Cl)c1ccc(F)cc1 (relative stereo) [F57, trans-2-Chloro-5-(2,2-dichloro-3-(3-(trifluoromethyl)phenyl)cyclopropane-1-carboxamido)-N-(4-fluorophenyl)-N-methylbenzamide] | 50 to 100 | B (More than 0-Less than 80) | 50 to 100 |
| O=C(Nc1c(F)cccc1F)c1cc(NC(=O)[C@H]2[C@H](c3cccc(C(F)(F)F)c3)C2(Cl)Cl)ccc1Cl (relative stereo) [F58, trans-2-Chloro-5-(2,2-dichloro-3-(3-(trifluoromethyl)phenyl)cyclopropane-1-carboxamido)-N-(2,6-difluorophenyl)benzamide] | 50 to 100 | A (80-100) | 50 to 100 |
| CN(C(=O)c1cc(NC(=O)[C@H]2[C@H](c3ccc(Cl)c(Cl)c3)C2(Cl)Cl)ccc1F)c1ccc(F)cc1 (relative stereo) [F59, trans-5-(2,2-Dichloro-3-(3,4-dichlorophenyl)cyclopropane-1-carboxamido)-2-fluoro-N-(4-fluorophenyl)-N-methylbenzamide] | 50 to 100 | A (80-100) | 50 to 100 |
| O=C(Nc1ccc(F)cc1F)c1cc(NC(=O)[C@H]2[C@H](c3cc(Cl)cc(Cl)c3)C2(Cl)Cl)ccc1F (relative stereo) [F61, trans-5-(2,2-Dichloro-3-(3,5-dichlorophenyl)cyclopropane-1-carboxamido)-N-(2,4-difluorophenyl)-2-fluorobenzamide] | 50 to 100 | B (More than 0-Less than 80) | 50 to 100 |
| O=C(Nc1ccc(F)cc1F)c1cc(NC(=O)[C@H]2[C@H](c3ccc(Cl)c(Cl)c3)C2(Cl)Cl)ccc1F (relative stereo) [F62, trans-5-(2,2-Dichloro-3-(3,4-dichlorophenyl)cyclopropane-1-carboxamido)-N-(2,4-difluorophenyl)-2-fluorobenzamide] | 50 to 100 | B (More than 0-Less than 80) | 50 to 100 |
| CN(C(=O)c1cc(NC(=O)[C@H]2[C@H](c3cc(Cl)cc(Cl)c3)C2(Cl)Cl)ccc1F)c1ccc(F)cc1F (relative stereo) [F63, trans-5-(2,2-Dichloro-3-(3,5-dichlorophenyl)cyclopropane-1-carboxamido)-N-(2,4-difluorophenyl)-2-fluoro-N-methylbenzamide] | 50 to 100 | A (80-100) | 50 to 100 |
| CN(C(=O)c1cc(NC(=O)[C@H]2[C@H](c3cc(Cl)c(Cl)c(Cl)c3)C2(Cl)Cl)ccc1F)c1ccc(F)cc1F (relative stereo) [F65, trans-5-(2,2-Dichloro-3-(3,4,5-trichlorophenyl)cyclopropane-1-carboxamido)-N-(2,4-difluorophenyl)-2-fluoro-N-methylbenzamide] | 50 to 100 | A (80-100) | 50 to 100 |
| CN(C(=O)c1cc(NC(=O)[C@H]2[C@H](c3cc(Cl)cc(Cl)c3)C2(Cl)Cl)ccc1F)c1ccccc1 (relative stereo) [F66, trans-5-(2,2-Dichloro-3-(3,5-dichlorophenyl)cyclopropane-1-carboxamido)-2-fluoro-N-methyl-N-phenylbenzamide] | 50 to 100 | A (80-100) | 50 to 100 |
| CN(C(=O)c1cc(NC(=O)[C@H]2[C@H](c3ccc(Cl)c(Cl)c3)C2(Cl)Cl)ccc1F)c1ccccc1 (relative stereo) [F67, trans-5-(2,2-Dichloro-3-(3,4-dichlorophenyl)cyclopropane-1-carboxamido)-2-fluoro-N-methyl-N-phenylbenzamide] | 50 to 100 | B (More than 0-Less than 80) | 50 to 100 |
| CN(C(=O)c1cc(NC(=O)[C@H]2[C@H](c3cc(Cl)c(Cl)c(Cl)c3)C2(Cl)Cl)ccc1F)c1ccccc1 (relative stereo) [F68, trans-5-(2,2-Dichloro-3-(3,4,5-trichlorophenyl)cyclopropane-1-carboxamido)-2-fluoro-N-methyl-N-phenylbenzamide] | 50 to 100 | B (More than 0-Less than 80) | 50 to 100 |
| CN(C(=O)c1cccc(NC(=O)[C@H]2[C@H](c3cc(Cl)cc(Cl)c3)C2(Cl)Cl)c1F)c1ccccc1 (relative stereo) [F69, trans-3-(2,2-Dichloro-3-(3,5-dichlorophenyl)cyclopropane-1-carboxamido)-2-fluoro-N-methyl-N-phenylbenzamide] | 50 to 100 | B (More than 0-Less than 80) | 50 to 100 |
| CN(C(=O)c1cccc(NC(=O)[C@H]2[C@H](c3ccc(Cl)c(Cl)c3)C2(Cl)Cl)c1F)c1ccccc1 (relative stereo) [F70, trans-3-(2,2-Dichloro-3-(3,4-dichlorophenyl)cyclopropane-1-carboxamido)-2-fluoro-N-methyl-N-phenylbenzamide] | 50 to 100 | A (80-100) | 50 to 100 |
| CN(C(=O)c1cccc(NC(=O)[C@H]2[C@H](c3cc(Cl)c(Cl)c(Cl)c3)C2(Cl)Cl)c1F)c1ccccc1 (relative stereo) [F71, trans-3-(2,2-Dichloro-3-(3,4,5-trichlorophenyl)cyclopropane-1-carboxamido)-2-fluoro-N-methyl-N-phenylbenzamide] | 50 to 100 | B (More than 0-Less than 80) | 50 to 100 |
| CN(C(=O)c1cc(NC(=O)[C@H]2[C@H](c3cc(Cl)c(Cl)cc3Cl)C2(Cl)Cl)ccc1Cl)c1ccc(F)cc1 (relative stereo) [F74, trans-2-Chloro-5-(2,2-dichloro-3-(2,4,5-trichlorophenyl)cyclopropane-1-carboxamido)-N-(4-fluorophenyl)-N-methylbenzamide] | 50 to 100 | B (More than 0-Less than 80) | 50 to 100 |
| O=C(Nc1ccc(F)cc1F)c1cc(NC(=O)[C@H]2[C@H](c3cc(Cl)c(Cl)c(Cl)c3)C2(Cl)Cl)ccc1F (relative stereo) [F75, trans-5-(2,2-Dichloro-3-(3,4,5-trichlorophenyl)cyclopropane-1-carboxamido)-N-(2,4-difluorophenyl)-2-fluorobenzamide] | 50 to 100 | A (80-100) | 50 to 100 |
| O=C(Nc1ccc(F)cc1)c1cc(NC(=O)[C@H]2[C@H](c3ccc(C(F)(F)F)cc3)C2(Cl)Cl)ccc1Cl (relative stereo) [F81, trans-2-Chloro-5-(2,2-dichloro-3-(4-(trifluoromethyl)phenyl)cyclopropane-1-carboxamido)-N-(4-fluorophenyl)benzamide] | 50 to 100 | A (80-100) | 50 to 100 |
| CN(C(=O)c1cc(NC(=O)[C@H]2[C@H](c3ccc(C(F)(F)F)cc3)C2(Cl)Cl)ccc1Cl)c1ccc(F)cc1 (relative stereo) [F82, trans-2-Chloro-5-(2,2-dichloro-3-(4-(trifluoromethyl)phenyl)cyclopropane-1-carboxamido)-N-(4-fluorophenyl)-N-methylbenzamide] | 50 to 100 | B (More than 0-Less than 80) | 50 to 100 |
